According to PMC4057637, “Efficacy of novel antibacterial compounds targeting histidine kinase YycG protein” (Applied Microbiology and Biotechnology, 2014):

System: 24-h biofilms of S. epidermidis ATCC 35984
Assay: Rabbit subcutaneous S. epidermidis biofilm infection model
Assay type: in vivo, New Zealand White rabbits
Settings: 6.3 μM (4 × MIC), 1 ml local injection at 0, 24, 48 h; 72 h exposure
Procedure: To test the effectiveness in vivo of H2-74 and H2-81, 24-h biofilms of S. epidermidis grown on polyethylene disks were imbedded subcutaneously into the New Zealand White rabbits and treated with the derivatives for 72 h in a modification of the method used previously (He et al. [2011]). Disks were cut from polyethylene 96-well plates (8 mm diameter, 1 mm thickness), sterilized with 75 % ethanol and placed in a Petri dish (100 mm diameter). An overnight culture of S. epidermidis ATCC 35984 (20 ml) was inoculated into the dish and incubated at 37 °C for 24 h. The disks covered with biofilms were then implanted subcutaneously in female New Zealand White rabbits (2.0–2.5 kg) that had been anesthetized with pentobarbital sodium (5 mg/kg i.v.). Four incisions (10 mm) were made on the back of the rabbit along the spine bilaterally after removal of fur, and the sub cutis was carefully dissected to form a 2-cm × 3-cm cavity. Two biofilm-covered polyethylene disks were implanted into each cavity, and to minimize the effect of between-animal variation, four different treatments were given locally to each rabbit.
Vancomycin (128 mg/l) and 0.1 % DMSO were administered as the controls. Twenty-four hours after the last treatment, the rabbits were euthanized and the implants were taken out with sterile forceps. Biofilms were scraped from the disks, and the viable bacteria were determined by CFU counting, as previously described (He et al. [2011]). All animals were housed and used in compliance with the guidelines of the Institute of Animal Care and Use Committee, and the protocol was approved by the committee.

## O=C(O)COc1ccc(C=C2SC(=Nc3ccc(Cl)cc3)N(c3ccc(Cl)cc3)C2=O)cc1 [H2-74, 2-{4-{[3-(4-chlorophenyl)-2-[(4-chlorophenyl)imino]-4-oxothiazolidin-5-ylidene}methyl}phenoxy}acetic acid]
  viable bacteria recovered from implanted disks: 2.91 ± 0.42 log10 CFU/cm^2

## O=C(O)c1ccc(-c2ccc(/C=C3\S/C(=N\c4ccccc4)N(c4ccc(F)cc4)C3=O)s2)cc1 [H2-81, 4-{5-{{3-(4-fluorophenyl)-2-[(4-phenyl)imino]-4-oxothiazolidin-5-ylidene}methyl}thiophene-2-yl}benzoic acid]
  viable bacteria recovered from implanted disks: 2.18 log10 CFU/cm^2
